In patent publication US7247641B2, “Compounds, derivatives, compositions, preparation and uses” (MGI GP, Inc., priority 2001, dated 2007):

Assays:
[1] = tested on: ischemia and reperfusion of the heart in rabbits; settings: cited from earlier work
[2] = tested on: focal cerebral ischemia in male Long-Evans rats; test: Focal cerebral ischemia: right distal MCA cauterization with temporary bilateral CCA occlusion; format: in vivo, rat; settings: 24 h, mean±SD
Method: Focal cerebral ischemia is produced by cauterization of the right distal MCA (middle cerebral artery) with bilateral temporary common carotid artery occlusion in male Long-Evans rats for 90 minutes. All procedures performed on the animals are approved by the University Institutional Animal Care and Use Committee of the University of Pennsylvania. A total of 42 rats (weights: 230-340 g) obtained from Charles River were used in this study. The animals fasted overnight with free access to water prior to the surgical procedure.
Two hours prior to MCA occlusion, varying amounts (control, n=14; 5 mg/kg, n=7; 10 mg/kg, n=7; 20 mg/kg, n=7; and 40 mg/kg, n=7) of the compound, 3,4-dihydro-5-[4-(1-piperidinyl)-butoxy]-1(2H)-isoquinolinone (“DPQ”) were dissolved in dimethyl sulfoxide (DMSO) using a sonicator. A volume of 1.28 ml/kg of the resulting solution was injected intraperitoneally into […].
The rats were then anesthetized with halothane (4% for induction and 0.8%-1.2% for the surgical procedure) in a mixture of 70% nitrous oxide and 30% oxygen. The body temperature was monitored by a rectal probe and maintained at 37.5±0.5° C. with a heating blanket regulated by a homeothermiic blanket control unit (Harvard Apparatus Limited, Kent, U.K.). A catheter (PE-50) was placed into the tail artery, and arterial pressure was continuously monitored and recorded on a Grass polygraph recorder (Model 7D, Grass Instruments, Quincy, Mass.). Samples for blood gas analysis (arterial pH, PaO2 and PaCO2) were also taken from the tail artery catheter and measured with a blood gas analyzer (ABL 30, Radiometer, Copenhagen, Denmark). Arterial blood samples were obtained 30 minutes after MCA occlusion.
The head of the animal was positioned in a stereotaxic frame, and a right parietal incision between the right lateral canthus and the external auditory meatus was made. Using a dental drill constantly cooled with saline, a 3 mm burr hole was prepared over the cortex supplied by the right MCA, 4 mm lateral to the sagittal suture and 5 mm caudal to the coronal suture. The dura mater and a thin inner bone layer were kept, care being taken to position the probe over a tissue area devoid of large blood vessels. The flow probe (tip diameter of 1 mm, fiber separation of 0.25 mm) was lowered to the bottom of the cranial burr hole using a micromanipulator. The probe was held stationary by a probe holder secured to the skull with dental cement. The microvascular blood flow in the right parietal cortex was continuously monitored with a laser Doppler flowmeter (FloLab, Moor, Devon, U.K., and Periflux 4001, Perimed, Stockholm, Sweden). […]

[3] = tested on: PARP; settings: read-out: IC50 for inhibiting PARP; reported by Suto et al.; cited from earlier work
[4] = tested on: MSU crystal induced neutrophil migration in Swiss albino mice; test: MSU crystal-induced neutrophil recruitment (peritonitis gout model); format: in vivo, mouse; settings: 6 h
Method: Male outbread Swiss albino mice (20-22 g body weight) were purchased from Banton and Kingsman (T. O. strain; Hull, Humberside) and maintained on a standard chow pellet diet with tap water ad libitum and a 12:00 h light/dark cycle. All animals were housed for 1 week prior to experimentation to allow body weight to reach 28-30 g.
1,11b-dihydrobenzopyrano[4,3,2-de ]isoquinolin-1-one was dissolved in 100% DMSO at room temperature at a concentration of 45 mg in 2 ml. The compound was then injected into the peritoneal cavity, so as each mouse received a single dose corresponding to 45 mg/2 ml/kg (e.g. 60 μl for a mouse of 30 g). Control mice received DMSO at 2 ml/kg i.p. A third group of mice which were left untreated were added to control for potential effects of the vehicle. […]
MSU crystal-induced neutrophil recruitment was tested as follows. […] Peritonitis was induced by injection of 3 mg MSU crystals in 0.5 ml PBS (0.1 M, pH 7.4), and the recruitment of neutrophils into the cavity evaluated at the 6 h time point (Getting et al., 1997, J. Pharmacol. Exp. Ther. 283: 123-130). […]
An aliquot (100 μl) of the lavage fluid was then diluted 1:10 in Turk's solution (0.01% crystal violet in 3% acetic acid). The samples were then vortexed and 10 μl of the stained cell solution were placed in a Neubauer haematocymometer and neutrophils numbers counted using a light microscope (Olympus B061). […]

Oc1cccc2c(O)nccc12 [1,5-dihydroxyisoquinoline]
reduction in infarct size ([1]; single injection 1 mg/kg): 38-48%

O=C1NCCc2c(OCCCCN3CCCCC3)cccc21 [DPQ, 3,4-dihydro-5-[4-(1-piperidinyl)-butoxy]-1(2H)-isoquinolinone]
damaged volume (infarct volume) ([2]; 5 mg/kg i.p. 2 h before and 2 h after MCA occlusion, control 165.2±34.0): 106.7±23.2 mm^3 | damaged volume (infarct volume) ([2]; 10 mg/kg i.p. 2 h before and 2 h after MCA occlusion, control 165.2±34.0): 76.4±16.8 mm^3 | damaged volume (infarct volume) ([2]; 20 mg/kg i.p. 2 h before and 2 h after MCA occlusion, control 165.2±34.0): 110.2±42.0 mm^3 | damaged volume (infarct volume) ([2]; 40 mg/kg i.p., no significant difference from control 165.2±34.0): 135.6±44.8 mm^3 | IC50 [3]: 40 nM

O=C1N=Cc2cccc3c2C1c1ccccc1O3 (stereo not drawn) [1,11b-dihydrobenzopyrano[4,3,2-de]isoquinolin-1-one]
Neutrophils, mean ± S.E. ([4]; 45 mg/kg i.p. 1 h prior to 3 mg MSU crystals, n=8, vehicle group 6.30 ± 0.33): 2.85 ± 0.34 (8)* 10^6 per mouse | inhibition of cell influx vs. the vehicle group ([4]; 45 mg/kg i.p.): 55%

NC(=O)c1cccc(N)c1 [3-amino-benzamide]
reduction in infarct size in the heart ([1]; single injection 10 mg/kg, one minute before occlusion or before reperfusion): 32-42%
